Measurements as given in US10308682B2, “Inhibition of tumor growth with aggregates of small molecules” (BRANDEIS UNIVERSITY, priority 2013, dated 2019).

Legend:
[1] = cited from earlier work
[2] = test system: HeLa cells; test: Cell viability assay (MTT), HeLa cells; format: cell-based
Experimental: Cells in exponential growth phase were seeded in a 96 well plate at a concentration of 50,000 cell/well. The cells were allowed to attach to the wells for 24 h at 37° C., 5% CO2, then the culture medium was removed and 100 μL new culture medium containing 1 at gradient concentrations was placed into each well. After culturing at 37° C., 5% CO2 for desired time, each well was added by 10 μL of 5 mg/mL MTT 43-(4,5-Dimethylthiazol-2-yl)-2,5-diphenyltetrazolium bromide), and the plated cells were incubate at dark for 4 h. 100 μL 10% SDS with 0.01 M HCl was added to each well to stop the reduction reaction and to dissolve the purple. After incubation of the cells at 37° C. for overnight, the viability is measured. Data represent the mean±standard deviation of three independent experiments.
The estimation of the threshold concentration of aggregation (320-340 μM) for 1 allows us to examine the cytotoxicity of 1 in monomer and molecular aggregate forms. We first tested the cytotoxicity of 1 towards HeLa cells, the most widely studied cancer cell line, below and above the threshold concentration.

[3] = Self-assembly: gelation and aggregation ability; format: physicochemical
Source text: FIG. 22 depicts the characteristics and cytotoxicity of a structural analog of 1.
Another often overlooked feature of amyloid oligomers is that their cytotoxicity is independent of chirality of the amino acids.

| Compound | IC50 (cytotoxicity of aberrant protein aggregates) [1] [mg/mL] | cytotoxicity (MTT, HeLa cells) compared with 1 [2] | gelation ability compared with 1 [3] |
| --- | --- | --- | --- |
| transthyretin | 0.2 | – | – |
| O=C(Cc1ccc2ccccc2c1)N[C@@H](Cc1ccc(O)cc1)C(=O)N[C@@H](Cc1ccc(O)cc1)C(=O)O [Nap-YY] | – | lower cytotoxicity than 1 | poorer gelation ability |
